# Reference: patent US10766869B2, “Triazoles for the treatment of demyelinating dieases” (Vertex Pharmaceuticals Incorporated, priority 2015, dated 2020)
# Tested on: primary rat mixed cortical cells
# Assay: In vitro myelination assay (MBP positive myelin strands, fold myelin pixels above background)
# Type: cell-based
# Conditions: Rattus norvegicus, read-out: Fold myelin pixels above background relative to baseline of no added compound; for fold induction at 1 µM: 1.0 μM compound; for fold induction at 10 µM: 10.0 μM compound
# In short: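 P1 rat cortical cells (neurons, OPCs, oligodendrocytes, astrocytes, microglia) were cultured 14 days at 37 °C with compound, with half-medium changes containing 1× compound on days 6 and 10. Fixed cells were immunostained for MBP and imaged at 10×. Total MBP myelin pixels per well were expressed as fold above no-compound baseline at 1.0 μM and 10.0 μM.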
SMILES,fold induction at 1 µM,fold induction at 10 µM
"CC1(N2CCN(c3cc(C(F)F)cc(Nc4ncn(-c5ccc(F)c(F)c5)n4)n3)CC2)COC1 [Compound 849, 4-(difluoromethyl)-N-[1-(3,4-difluorophenyl)-1,2,4-triazol-3-yl]-6-[4-(3-methyloxetan-3-yl)piperazin-1-yl]pyridin-2-amine]",10 to 100,10 to 100
"COCCCN1CCN(c2cc(C)cc(Nc3ncn(-c4cc(F)cc(F)c4)n3)c2)CC1 [Compound 850, 1-(3,5-difluorophenyl)-N-[3-[4-(3-methoxypropyl)piperazin-1-yl]-5-methyl-phenyl]-1,2,4-triazol-3-amine]",10 to 100,≤ 1
"Cc1cc(Nc2ncn(-c3cc(F)cc(F)c3)n2)cc(N2CCC3(CCCO3)CC2)c1 [Compound 851, 1-(3,5-difluorophenyl)-N-[3-methyl-5-(1-oxa-8-azaspiro[4.5]decan-8-yl)phenyl]-1,2,4-triazol-3-amine]",1 to 10,10 to 100
"Cc1cc(Nc2ncn(-c3cc(F)cc(NCCO)c3)n2)cc(N2CC(F)C2)c1 [Compound 852, 2-[3-fluoro-5-[3-[3-(3-fluoroazetidin-1-yl)-5-methyl-anilino]-1,2,4-triazol-1-yl]anilino]ethanol]",1 to 10,≤ 1
"N#Cc1cc(Nc2ncn(-c3cc(F)cc(F)c3)n2)nc(N2CCN(C3COC3)CC2)c1 [Compound 853, 2-[[1-(3,5-difluorophenyl)-1,2,4-triazol-3-yl]amino]-6-[4-(oxetan-3-yl)piperazin-1-yl]pyridine-4-carbonitrile]",1 to 10,10 to 100
"Cc1cc(Nc2ncn(-c3cccc(C(F)(F)F)c3)n2)cc(N2CCC(N3CCOCC3)CC2)c1 [Compound 854, N-[3-methyl-5-(4-morpholino-1-piperidyl)phenyl]-1-[3-(trifluoromethyl)phenyl]-1,2,4-triazol-3-amine]",100 to 1000,10 to 100
"COCCC1CCN(c2cc(C)cc(Nc3ncn(-c4cc(F)cc(F)c4)n3)n2)CC1 [Compound 855, N-[1-(3,5-difluorophenyl)-1,2,4-triazol-3-yl]-6-[4-(2-methoxyethyl)-1-piperidyl]4-methyl-pyridin-2-amine]",1 to 10,1 to 10
"Cc1cc(Nc2ncn(-c3cc(F)cc(F)c3)n2)c(F)c(OC2CCOC2)c1 (stereo not drawn) [Compound 856, 1-(3,5-difluorophenyl)-N-(2-fluoro-5-methyl-3-tetrahydrofuran-3-yloxy-phenyl)-1,2,4-triazol-3-amine]",10 to 100,≤ 1
"Cc1cc(Nc2ncn(-c3cc(F)cc(F)c3)n2)cc(N2CC(N3C[C@@H](C)O[C@H](C)C3)C2)c1 [Compound 857, 1-(3,5-difluorophenyl)-N-[3-[3-[(2R,6R)-2,6-dimethylmorpholin-4-yl]azetidin-1-yl]-5-methyl-phenyl]-1,2,4-triazol-3-amine]",10 to 100,10 to 100
"Cc1cc(NCCN2CCOCC2)cc(Nc2ncn(-c3cc(F)cc(F)c3)n2)c1 [Compound 858, N1-[1-(3,5-difluorophenyl)-1,2,4-triazol-3-yl]-5-methyl-N3-(2-morpholinoethyl)benzene-1,3-diamine]",10 to 100,≤ 1
"Fc1ccc(-n2cnc(Nc3cc(C(F)F)cc(N4CCN(C5COC5)CC4)n3)n2)cc1Cl [Compound 859, N-[1-(3-chloro-4-fluoro-phenyl)-1,2,4-triazol-3-yl]-4-(difluoromethyl)-6-[4-(oxetan-3-yl)piperazin-1-yl]pyridin-2-amine]",1 to 10,1 to 10
"CC(F)(F)c1cc(Nc2ncn(-c3cccc(F)c3)n2)nc(N2CCN(C3COC3)CC2)c1 [Compound 860, 4-(1,1-difluoroethyl)-N-[1-(3-fluorophenyl)-1,2,4-triazol-3-yl]-6-[4-(oxetan-3-yl)piperazin-1-yl]pyridin-2-amine]",10 to 100,1 to 10
"Cc1c(Nc2ncn(-c3ccccn3)n2)cc(N2CCN(C3COC3)CC2)cc1OC(C)C [Compound 862, N-[3-isopropoxy-2-methyl-5-[4-(oxetan-3-yl)piperazin-1-yl]phenyl]-1-(2-pyridyl)-1,2,4-triazol-3-amine]",1 to 10,10 to 100
"Clc1cc(Nc2ncn(-c3ccncn3)n2)cc(N2CC(N3CCOCC3)C2)c1 [Compound 863, N-[3-chloro-5-(3-morpholinoazetidin-1-yl)phenyl]-1-pyrimidin-4-yl-1,2,4-triazol-3-amine]",10 to 100,10 to 100
"Cc1cc(Nc2ncn(-c3cc(F)cc(F)c3)n2)cc(C(=O)N2CCN(C3COC3)CC2)c1 [Compound 864, [3-[[1-(3,5-difluorophenyl)-1,2,4-triazol-3-yl]amino]-5-methyl-phenyl]-[4-(oxetan-3-yl)piperazin-1-yl]methanone]",10 to 100,10 to 100
"Cc1cc(Nc2ncn(-c3ccc(F)c(F)c3)n2)cc(OCC2CCOC2)c1 (stereo not drawn) [Compound 865, 1-(3,4-difluorophenyl)-N-[3-methyl-5-(tetrahydrofuran-3-ylmethoxy)phenyl]-1,2,4-triazol-3-amine]",1 to 10,1 to 10
"Cc1cc(Nc2ncn(-c3cc(F)cc(F)c3)n2)cc(N2CC(CN3CCOCC3)C2)c1 [Compound 866, 1-(3,5-difluorophenyl)-N-[3-methyl-5-[3-(morpholinomethyl)azetidin-1-yl]phenyl]-1,2,4-triazol-3-amine]",1 to 10,10 to 100
"FC(F)c1cc(Nc2ncn(-c3cccc(C(F)(F)F)c3)n2)nc(N2CCOCC2)c1 [Compound 867, 4-(difluoromethyl)-6-morpholino-N-[1-[3-(trifluoromethyl)phenyl]-1,2,4-triazol-3-yl]pyridin-2-amine]",10 to 100,10 to 100
"Fc1cc(F)cc(-n2cnc(Nc3cc(N4CC(N5CCOCC5)C4)cc(N4CC(N5CCOCC5)C4)c3)n2)c1 [Compound 868, N-[3,5-bis(3-morpholinoazetidin-1-yl)phenyl]-1-(3,5-difluorophenyl)-1,2,4-triazol-3-amine]",1 to 10,1 to 10
"Cc1cc(Nc2ncn(-c3cc(F)cc(F)c3)n2)c(F)c(NC2(C)COC2)c1 [Compound 869, N3-[1-(3,5-difluorophenyl)-1,2,4-triazol-3-yl]-2-fluoro-5-methyl-N1-(3-methyloxetan-3-yl)benzene-1,3-diamine]",10 to 100,1 to 10
"Cc1cc(N2CC(N3CCOCC3)C2)cc(Nc2ncn(-c3cc(F)cc(F)c3)n2)c1F [Compound 870, 1-(3,5-difluorophenyl)-N-[2-fluoro-3-methyl-5-(3-morpholinoazetidin-1-yl)phenyl]-1,2,4-triazol-3-amine]",1 to 10,1 to 10
"Cc1cc(Nc2ncn(-c3cc(F)cc(F)c3)n2)cc(N2CC(C)C(N3CCOCC3)C2)c1 (stereo not drawn) [Compound 871, 1-(3,5-difluorophenyl)-N-[3-methyl-5-(3-methyl-4-morpholino-pyrrolidin-1-yl)phenyl]-1,2,4-triazol-3-amine]",1 to 10,1 to 10
"CCC1COCCN1CCNc1cc(C)cc(Nc2ncn(-c3cc(F)cc(F)c3)n2)c1 (stereo not drawn) [Compound 872, N3-[1-(3,5-difluorophenyl)-1,2,4-triazol-3-yl]-N1-[2-(3-ethylmorpholin-4-yl)ethyl]-5-methyl-benzene-1,3-diamine]",10 to 100,≤ 1
"Cc1cc(Nc2ncn(-c3cc(F)cc(F)c3)n2)cc(NC2CCCN(CCF)C2)c1 (stereo not drawn) [Compound 873, N3-[1-(3,5-difluorophenyl)-1,2,4-triazol-3-yl]-N1-[1-(2-fluoroethyl)-3-piperidyl]-5-methyl-benzene-1,3-diamine]",1 to 10,≤ 1
"Cc1cc(Nc2ncn(-c3cc(F)cc(F)c3)n2)cc(N2CCC(CCO)CC2)c1 [Compound 874, 2-[1-[3-[[1-(3,5-difluorophenyl)-1,2,4-triazol-3-yl]amino]-5-methyl-phenyl]-4-piperidyl]ethanol]",10 to 100,≤ 1
"Cc1cc(Nc2ncn(-c3cc(F)cc(F)c3)n2)cc(N2CCN(C3CCCC3O)CC2)c1 (stereo not drawn) [Compound 875, 2-[4-[3-[[1-(3,5-difluorophenyl)-1,2,4-triazol-3-yl]amino]-5-methyl-phenyl]piperazin-1-yl]cyclopentanol]",10 to 100,≤ 1
"[2H]C1([2H])N(c2cc(Nc3ncn(-c4cc(F)cc(F)c4)n3)cc(C(F)F)c2)C([2H])([2H])C([2H])([2H])C([2H])([2H])C1([2H])[2H] [Compound 876, N-[3-(2,2,3,3,4,4,5,5,6,6-decadeuterio-1-piperidyl)-5-(difluoromethyl)phenyl]-1-(3,5-difluorophenyl)-1,2,4-triazol-3-amine]",10 to 100,10 to 100
"Cc1cc(Nc2ncn(-c3cc(F)cc(F)c3)n2)cc(N2CCC(CCCO)CC2)c1 [Compound 877, 3-[1-[3-[[1-(3,5-difluorophenyl)-1,2,4-triazol-3-yl]amino]-5-methyl-phenyl]-4-piperidyl]propan-1-ol]",1 to 10,1 to 10
"Cc1cc(Nc2ncn(-c3cc(F)cc(F)c3)n2)cc(N2CCN(C3CCCCC3O)CC2)c1 (stereo not drawn) [Compound 878, 2-[4-[3-[[1-(3,5-difluorophenyl)-1,2,4-triazol-3-yl]amino]-5-methyl-phenyl]piperazin-1-yl]cyclohexanol]",10 to 100,≤ 1
"Cc1cc(Nc2ncn(-c3cc(F)cc(F)c3)n2)cc(N2CCC(N3CCC(O)CC3)CC2)c1 [Compound 879, 1-[1-[3-[[1-(3,5-difluorophenyl)-1,2,4-triazol-3-yl]amino]-5-methyl-phenyl]-4-piperidyl]piperidin-4-ol]",≤ 1,≤ 1
